What was measured:
[1] = tested on: Staphylococcus aureus (ATCC 6538); experiment: Short-term (14 day) stability in commercial plastic container (RENU) by S. aureus bioassay; type: cell-based; details: for stability of antimicrobial activity: room temperature, plastic container
Excerpt: The objective of this study was to determine if there is significant and rapid binding of L-IND to a typical plastic bottle such as the type to be used to store, ship and use the lens-care solution. The 2-week study reported here was a range-finding task to determine if there was substantial binding and incompatibility, and its results helped plan a more extensive stability study over a period of 8 months.
The two commercial containers were used that previously contained the commercial product RENU®, a multi-purpose solution for all soft contact lenses not requiring enzymatic cleaning, and manufactured by Bausch & Lomb. These containers hold a volume of 89 ml and came with a dispenser that precludes the removal of the cap, which aids in keeping the solution sterile. The lot number of the RENU® lens-care solutions used was GE7089, having an expiration date of May 1999.
The containers were prepared for the L-IND stability study by discarding the RENU® lens care solution, and by rinsing, 3 times with either sterile 10 mM sodium phosphate buffer (SP), pH 7.4 or 10 mM SP supplemented with 0.85 % (w/v) sodium chloride (SP+NaCl).
The test article, L-IND peptide solution, was prepared fresh from dry L-IND powder (Lot #036752). Two solutions were prepared for evaluation, to a final concentration of 50 μg/ml in 50 ml of 10 mM SP and 10 mM SP+NaCl. For this purpose a stock solution was prepared by weighing out 5 mg of L-IND and dissolving it in 10 ml of 0.01% acetic acid in a pyrogen free sterile Teflon container. A 10-fold dilution of this stock was then made by transferring 5 ml of the stock solution to each of the containers to which was then added 45 ml of either 10 mM SP or 10 mM SP+NaCl. After mixing by slowly shaking, the solutions were maintained at room temperature for the duration of the study.
It should be noted that the 5 ml of the L-IND stock solution was added to the empty containers. This was followed by addition of 45 ml of the respective buffer systems. The addition of peptide concentrate to the empty containers would enhance binding of the peptide to the plastic. Had excessive binding resulted, a less stringent procedure of adding the peptide concentrate to bottles prefilled with buffer would have been adopted in subsequent experiments.
The stability of L-IND in each container was determined at times 0 h, 24 h, 48 h, 72 h, 7 d, 10 d and 14 d. At each sampling point, the contents of each of the two containers was shaken gently 3 times in a back and forth rocking motion. Three aliquots of about 1.5 ml of the solutions containing L-IND were removed. One aliquot was used immediately for determining the stability of L-IND by exposure to Staphylococcus aureus (see below). The other aliquots were stored in the freezer (−20° C.). One of these aliquots was kept until the end of the monitoring period, which was 14 days. At that time all the frozen samples were thawed and tested for stability of L-IND by bioassay.
Staphylococcus aureus (ATCC 6538) obtained directly from the American Type Culture Collection was the test organism. The bacterium was grown overnight at 37° C. in 5 ml of Mueller-Hinton (MH) broth on a shaking platform (180 rpm). The overnight culture was washed 2 times in sterile saline by centrifugation at 7,000 RPM. One half of the cells were then resuspended in 2.5 ml of sterile 10 mM SP, while the other half was resuspended in 2.5 ml of 10 mM SP+NaCl. Each washed culture was then diluted to give an estimated 10^7 colony-forming-units (CFU) per […].
S. aureus was exposed at room temperature to each of the samples, removed at the different time points, for 0, 15 and 60 minutes, and for 4 hours. For this purpose 0.25 ml of each L-IND solution was dispensed into wells of a 96-well polypropylene titer plate. A volume of 20 μl of the 10× washed bacterial suspension was then added to each well. The estimated cell density thus obtained per well was about 10^6 CFU/ml. […]

[2] = 4.97 mg dry powder
Protocol: 4.97 mg of L-IND #036752, stored at 4° C. in a desiccation) was weighed into a polypropylene microfuge and dissolved in 0.01% acetic acid.

[3] = tested on: Staphylococcus aureus (ATCC 6538); experiment: MIC / log kill assay, FDA 510(k) stand-alone procedure; type: cell-based; details: for log kill: 12.5 μg/ml
Protocol: (§1) The supernatant was discarded and the wash repeated.
(§2) The tube was inverted to dissolve the polypeptide. […] Solutions were used immediately or stored at −20° C.
(§3) The purpose of this experiment was to determine whether additives such as surfactants (pluronic) and chelating agents (EDTA) would effect L-IND activity. The concentrations selected for each organism tested ( S. aureus and P. aeruginosa) were based on the L-IND MIC for that organism. A lower concentration was also selected to determine whether the additives enhanced the antimicrobial activity of L-IND. Concentrations of L-IND ranged from 3.12 to 50 μg/ml. The concentration of sodium phosphate (SP) buffer was also examined and ranged from 1 to 10 mM.
(§4) A full factorial experimental design was used with 5 factors at 2 levels: 1) Exposure time (1 hr, 4hr); 2) SP buffer concentration, pH 7.4 (1 mM, 10 mM); 3) Surfactant concentration (0.25 wt %, 0.5 wt %); 4) EDTA concentration (0.1 wt %, 0.2 wt %); and 5) L-IND concentration (MIC and lower).
(§5) As described in the MIC procedure (Example 10), cultures were exposed to solutions containing various combinations of the above components for 1 or 4 hr at room temperature. Appropriate controls were conducted to evaluate the effects of individual components. Each replicate (assay done in triplicate) was then diluted 10-fold in NaCl and plated onto Mueller-Hinton agar. Colonies were then counted and log kill, effects of each additive, SP buffer concentration, and length of exposure on L-IND activity were examined. […]

[4] = tested on: Pseudomonas aeruginosa (ATCC 9027); experiment: as above; type: cell-based
Protocol: as §1, §2, §3, §4, §5

CC[C@H](C)[C@H](N)C(=O)N[C@@H](CC(C)C)C(=O)N1CCC[C@H]1C(=O)N[C@@H](Cc1c[nH]c2ccccc12)C(=O)N[C@@H](CCCCN)C(=O)N[C@@H](Cc1c[nH]c2ccccc12)C(=O)N1CCC[C@H]1C(=O)N[C@@H](Cc1c[nH]c2ccccc12)C(=O)N[C@@H](Cc1c[nH]c2ccccc12)C(=O)N1CCC[C@H]1C(=O)N[C@@H](Cc1c[nH]c2ccccc12)C(=O)N[C@@H](CCCNC(=N)N)C(=O)N[C@@H](CCCNC(=N)N)C(N)=O [L-indolicidin, H2N-ILPWKWPWWPWRR-CONH2]
stability of antimicrobial activity ([1]; 50 μg/ml in 10 mM SP+NaCl (0.85%), 14 days): stable
stability of antimicrobial activity ([1]; 50 μg/ml in 10 mM SP, 14 days): stable
adsorption to the plastic container ([1]; 50 μg/ml, 14 days): no obvious or dramatic adsorption
log kill ([1]; 50 μg/ml, frozen samples, 10 mM SP+NaCl, 4 hours exposure): about 1.5 log
log kill ([1]; 50 μg/ml, frozen, 10 mM SP, 60 minute exposure): 6 log
log kill ([1]; 50 μg/ml, unfrozen, 10 mM SP+NaCl (0.85%), 4 hours exposure): ~1 log
log kill ([1]; 50 μg/ml, unfrozen, 10 mM SP, 4 hours exposure): 4 log
Solubility in 0.01% acetic acid [2]: went into solution immediately
log kill ([3]; 1 mM SP buffer, pluronic and EDTA at either concentration): 6 log
log kill ([3]; 10 mM SP, without pluronic): 6 log
effect of EDTA on activity ([3]; 10 mM SP, EDTA 0.1 or 0.2 wt %): no effect
inhibition in kill ([3]; 0.5 wt % pluronic, SP at 5 mM): approximately 4 log
inhibition in kill ([3]; 32 μ/ml, pluronic and 10 mM SP buffer): > 3 log
effect of pluronic on activity ([3]; lower SP concentrations (1, 2.5 mM)): no effect in activity
effect of pluronic on activity ([4]; 32 μ/ml, 0.25 wt % pluronic, either SP buffer concentration): No effect
inhibition in kill ([4]; pluronic in 1 mM SP buffer, 32 and 16 μg/ml, 4 hr): ~3 log

Reference: patent US6482799B1, “Self-preserving multipurpose ophthalmic solutions incorporating a polypeptide antimicrobial” (The Regents of the University of California, priority 1999, dated 2002)
